Measurements as given in patent US6914122B2 (priority 2000, dated 2005).

Experiments:
[1] = biological target: Recombinant heterodimeric HCV NS3/NS4A protease (strain 1a) (Hepatitis C virus genotype 1a, UniProt P27958); assay: biochemical; set-up: species or system HCV (strain 1a)
[2] = biological target: T1, HCV serine protease (subtype 1b, 1bNS4A21-32GS-GS NS 3-81 I17K) in HeLa/Huh7 cells (Hepatitis C virus genotype 1b, UniProt P26663, I1043K); assay: Cell bioassay: HCV serine protease cell-based trans-cleavage assay; set-up: species or system Hepatitis C virus (subtype 1b)
T1 construct: 1bNS4A21-32GS-GS NS 3-81 I17K; expressed in transfected cells; host or cells: HeLa/Huh7 cells

| SMILES | Ki [1] [µM] | EC50 [2] [µM] |
| --- | --- | --- |
| CCCC(NC(=O)[C@@H]1Cc2cccc(c2)Oc2ccc(cc2)CCC(=O)N[C@@H](C2CCCCC2)C(=O)O1)C(=O)C(=O)NCC(=O)N[C@H](C(=O)N(C)C)c1ccccc1 (stereo partly shown) [Example 35] | 1.1 to 100 | 20 |
| CCCC(NC(=O)C1Cc2cccc(c2)OCCCCCCC(=O)NC(C2CCCCC2)C(=O)O1)C(=O)C(=O)NCC(=O)N[C@H](C(=O)N(C)C)c1ccccc1 (stereo partly shown) [Example 36] | 1.1 to 100 | 9 |
